System: transgenic Arabidopsis thaliana T1 plants
Assay: Detection of the herbicide tolerance of the transgenic Arabidopsis thaliana plants
Format: in vivo
Conditions: for The grade of pesticide damage/plant: 0 / The grade of pesticide damage/plant: 1 / The grade of pesticide damage/plant: 2 / The grade of pesticide damage/plant: 3: 7 DAT
Source text: The transformed Arabidopsis thaliana T1 plants were initially selected using glufosinate herbicide. The Arabidopsis thaliana T1 plants (PPOA-01) into which the PPOA-01 nucleotide sequence was introduced, the Arabidopsis thaliana T1 plants (PPOB-01) into which the PPOB-01 nucleotide sequence was introduced, the Arabidopsis thaliana T1 plants (PPOC-01) into which the PPOC-01 nucleotide sequence was introduced, the Arabidopsis thaliana T1 plants (PPOD-01) into which the PPOD-01 nucleotide sequence was introduced, the Arabidopsis thaliana T1 plants (PPOE-01) into which the PPOE-01 nucleotide sequence was introduced, the Arabidopsis thaliana T1 plants (PPOF-01) into which the PPOF-01 nucleotide sequence was introduced, the Arabidopsis thaliana T1 plants (PPO-AP-01) into which the PPO-AP-01 nucleotide sequence was introduced, and the Arabidopsis thaliana T1 plants (control vector) into which the control vector was introduced, the wild-type Arabidopsis thaliana plants (CK) (with 24 plants being included in each genotype) (18 days after sowing) were sprayed with saflufenacil at three concentrations (25 g ai/ha (one-fold field concentration, 1×), 100 g ai/ha (four-fold field concentration, 4×), and 0 g ai/ha (water, 0×)), oxyfluorfen at three concentrations (180 g ai/ha (one-fold field concentration, 1×), 720 g ai/ha (four-fold field concentration, 4×), and 0 g ai/ha (water, 0×)), and flumioxazin at three concentrations (60 g ai/ha (one-fold field concentration, 1×), 240 g ai/ha (four-fold field concentration, 4×), and 0 g ai/ha (water, 0×) to determine the tolerance of Arabidopsis thaliana to the herbicides. After 7 days of spraying (7 DAT), the damage level of each plant caused by the herbicide was evaluated according to the average of the damage levels (%) of plants (the average of the damage levels (%) of plants=the injured leaf area/the total leaf area×100%), i.e., the grade of pesticide damage: grade 0 means that the growth status of plants is essentially consistent with those sprayed with the blank solvent (water); grade 1 means that the average of the damage levels of plants is less than 10%; grade 2 means that the average of the damage levels of plants is greater than 10%; and grade 3 means that the average of the damage levels of plants is 100%. The plants having a growth status falling within grades 0 and 1 are classified as highly resistant plants; those having a growth status falling within grade 2 are classified as poorly resistant plants; and those having a growth status falling within grade 3 are classified as non-resistant plants.

[1] = genotype Control vector, 180 g ai/ha
[2] = genotype Control vector, 720 g ai/ha
[3] = genotype PPO-AP-01, 180 g ai/ha
[4] = genotype PPO-AP-01, 720 g ai/ha

CCOc1cc(Oc2ccc(C(F)(F)F)cc2Cl)ccc1[N+](=O)[O-] [oxyfluorfen, 2-chloro-1-(3-ethoxy-4-nitrophenoxy)-4-trifluoromethylbenzene]
9 plant: The grade of pesticide damage/plant: 1 (genotype PPOE-01, 720 g ai/ha)
0 plant: The grade of pesticide damage/plant: 0 (genotype CK, 180 g ai/ha) | The grade of pesticide damage/plant: 1 (genotype CK, 180 g ai/ha) | The grade of pesticide damage/plant: 2 (genotype CK, 180 g ai/ha) | The grade of pesticide damage/plant: 0 (genotype CK, 720 g ai/ha) | The grade of pesticide damage/plant: 1 (genotype CK, 720 g ai/ha) | The grade of pesticide damage/plant: 2 (genotype CK, 720 g ai/ha) | The grade of pesticide damage/plant: 0 [1] | The grade of pesticide damage/plant: 1 [1] | The grade of pesticide damage/plant: 2 [1] | The grade of pesticide damage/plant: 0 [2] | The grade of pesticide damage/plant: 1 [2] | The grade of pesticide damage/plant: 2 [2] | The grade of pesticide damage/plant: 0 [3] | The grade of pesticide damage/plant: 1 [3] | The grade of pesticide damage/plant: 2 [3] | The grade of pesticide damage/plant: 0 [4] | The grade of pesticide damage/plant: 1 [4] | The grade of pesticide damage/plant: 2 [4] | The grade of pesticide damage/plant: 1 (genotype PPOA-01, 180 g ai/ha) | The grade of pesticide damage/plant: 2 (genotype PPOA-01, 180 g ai/ha) | The grade of pesticide damage/plant: 3 (genotype PPOA-01, 180 g ai/ha) | The grade of pesticide damage/plant: 1 (genotype PPOA-01, 720 g ai/ha) | The grade of pesticide damage/plant: 2 (genotype PPOA-01, 720 g ai/ha) | The grade of pesticide damage/plant: 3 (genotype PPOA-01, 720 g ai/ha) | The grade of pesticide damage/plant: 1 (genotype PPOB-01, 180 g ai/ha) | The grade of pesticide damage/plant: 2 (genotype PPOB-01, 180 g ai/ha) | The grade of pesticide damage/plant: 3 (genotype PPOB-01, 180 g ai/ha) | The grade of pesticide damage/plant: 1 (genotype PPOB-01, 720 g ai/ha) | The grade of pesticide damage/plant: 2 (genotype PPOB-01, 720 g ai/ha) | The grade of pesticide damage/plant: 3 (genotype PPOB-01, 720 g ai/ha) | The grade of pesticide damage/plant: 1 (genotype PPOC-01, 180 g ai/ha) | The grade of pesticide damage/plant: 2 (genotype PPOC-01, 180 g ai/ha) | The grade of pesticide damage/plant: 3 (genotype PPOC-01, 180 g ai/ha) | The grade of pesticide damage/plant: 1 (genotype PPOC-01, 720 g ai/ha) | The grade of pesticide damage/plant: 2 (genotype PPOC-01, 720 g ai/ha) | The grade of pesticide damage/plant: 3 (genotype PPOC-01, 720 g ai/ha) | The grade of pesticide damage/plant: 1 (genotype PPOD-01, 180 g ai/ha) | The grade of pesticide damage/plant: 2 (genotype PPOD-01, 180 g ai/ha) | The grade of pesticide damage/plant: 3 (genotype PPOD-01, 180 g ai/ha) | The grade of pesticide damage/plant: 1 (genotype PPOD-01, 720 g ai/ha) | The grade of pesticide damage/plant: 2 (genotype PPOD-01, 720 g ai/ha) | The grade of pesticide damage/plant: 3 (genotype PPOD-01, 720 g ai/ha) | The grade of pesticide damage/plant: 2 (genotype PPOE-01, 180 g ai/ha) | The grade of pesticide damage/plant: 3 (genotype PPOE-01, 180 g ai/ha) | The grade of pesticide damage/plant: 2 (genotype PPOE-01, 720 g ai/ha) | The grade of pesticide damage/plant: 3 (genotype PPOE-01, 720 g ai/ha) | The grade of pesticide damage/plant: 1 (genotype PPOF-01, 180 g ai/ha) | The grade of pesticide damage/plant: 2 (genotype PPOF-01, 180 g ai/ha) | The grade of pesticide damage/plant: 3 (genotype PPOF-01, 180 g ai/ha) | The grade of pesticide damage/plant: 1 (genotype PPOF-01, 720 g ai/ha) | The grade of pesticide damage/plant: 2 (genotype PPOF-01, 720 g ai/ha) | The grade of pesticide damage/plant: 3 (genotype PPOF-01, 720 g ai/ha)
high-resistant tolerance: tolerance to the herbicide (in words) (genotypes PPOA-01 to PPOF-01, at different concentrations, compared with the control vector and CK)
22 plant: The grade of pesticide damage/plant: 0 (genotype PPOE-01, 180 g ai/ha)
15 plant: The grade of pesticide damage/plant: 0 (genotype PPOE-01, 720 g ai/ha)
no tolerance: tolerance to the herbicide (in words) (genotype PPO-AP-01, at different concentrations)
180 g ai/ha: effective dose distinguishing sensitive plants from plants having an average level of resistance (Arabidopsis thaliana)
2 plant: The grade of pesticide damage/plant: 1 (genotype PPOE-01, 180 g ai/ha)
24 plant: The grade of pesticide damage/plant: 3 (genotype CK, 180 g ai/ha) | The grade of pesticide damage/plant: 3 (genotype CK, 720 g ai/ha) | The grade of pesticide damage/plant: 3 [1] | The grade of pesticide damage/plant: 3 [2] | The grade of pesticide damage/plant: 3 [3] | The grade of pesticide damage/plant: 3 [4] | The grade of pesticide damage/plant: 0 (genotype PPOA-01, 180 g ai/ha) | The grade of pesticide damage/plant: 0 (genotype PPOA-01, 720 g ai/ha) | The grade of pesticide damage/plant: 0 (genotype PPOB-01, 180 g ai/ha) | The grade of pesticide damage/plant: 0 (genotype PPOB-01, 720 g ai/ha) | The grade of pesticide damage/plant: 0 (genotype PPOC-01, 180 g ai/ha) | The grade of pesticide damage/plant: 0 (genotype PPOC-01, 720 g ai/ha) | The grade of pesticide damage/plant: 0 (genotype PPOD-01, 180 g ai/ha) | The grade of pesticide damage/plant: 0 (genotype PPOD-01, 720 g ai/ha) | The grade of pesticide damage/plant: 0 (genotype PPOF-01, 180 g ai/ha) | The grade of pesticide damage/plant: 0 (genotype PPOF-01, 720 g ai/ha)

Reference: US20250275540A1, “USE OF PROTOPORPHYRINOGEN OXIDASE” (BEIJING DABEINONG BIOTECHNOLOGY CO., LTD., priority 2022, published 2025)
